# pIC50: −log10 of the molar value. Values joined by “and” are separate entries in the source; they are usually repeats but may differ in a detail not shown here. Equal entries are not always repeated. Where two headings read alike, the source gives them in different places.
# Columns and labels:
# [1] = tested on: HCV subgenomic RNA replicon in Huh7 cells; experiment: HCV subgenomic RNA replicon assay (Replicon Assay), TaqMan RT-PCR of replicon RNA after 48 h treatment; format: cell-based, hepatitis C virus (HCV); details: for Inhibition of replicon RNA accumulation: 48 hour treatment
# From the text: The Replicon Assay measures the amount of HCV subgenomic RNA (replicon RNA) remaining in replicon cells (Lohman et al. Science 285:110-113 (1999)) after two days of drug treatment relative to the amount of replicon RNA in untreated cells. In this assay, the potency of compounds as HCV antiviral drugs is directly proportional to the level of inhibition of replicon RNA accumulation.
# The Replicon Assay employing a cell line containing the self-replicating HCV subgenomic RNA (replicon) is described in Lohmann et al. Science 285:110-113 (1999). The Genbank accession number for the sequence of the replicon used in the experiments described herein is listed in this reference as AJ242654. This paper discloses methods for in vitro transcription of RNA from the replicon cDNA, transfection of the replicon RNA into Huh7 cells by electroporation, and selection of cells containing the replicon RNA using the antibiotic G418. Huh7 cells are a hepatoma cell line obtained from Dr. William Mason at Fox Chase Cancer Research Center (Philadelphia). These cells are publicly available from Fox Chase, and have been extensively described in the scientific literature (Nakabayashi at al. Cancer Res. 42:3858-3863 (1982)). In the experiments described herein, all of the template DNA is removed from the in vitro transcribed replicon RNA preparation prior to electroporation of this RNA into Huh7 cells by multiple treatment with DNase (three sequential treatments).
# The Replicon Assay is performed as described in detail below. Briefly, Replicon cells are placed in 96 well trays at a density of 10,000 cells per well and incubated 37° C. The cells are incubated in DMEM ([…]) supplemented with 10% fetal bovine serum, glutamine, nonessential amino acids, and the antibiotic G418 (0.25 mg/ml). […] Each compound is tested at six to eight different concentrations. […] Each HCV serine protease inhibitor concentration is tested without any added interferon, as well as with the addition of six to eight different interferon doses. Similarly, interferon is tested without any added HCV serine protease inhibitor. After a 48-hour incubation with the compounds, the medium is removed from the plates, and total cellular RNA is extracted from the cells using the RNeasy-96 kit manufactured by Qiagen Inc. (Valencia, Calif.). This RNA is then analyzed by quantitative RT-PCR, or TaqMan® (Applied Biosystems, Foster City Calif.). The TaqMan® RT-PCR target is the neomycin resistance gene in the replicon RNA. The plates are configured so that there are 5 replicates of each drug treatment sample, and 16 replicates of the untreated samples. This permits greater statistical confidence in the quantitative RT-PCR data.
# Analysis of the Replicon Assay data yields two values that are useful in assessing the potency of potential HCV antiviral agents. At each compound concentration tested, the level of inhibition in replicon RNA accumulation caused by the compound during two days of treatment relative to the amount of replicon RNA in untreated cells is determined. This is reported as percent inhibition. […] The IC50 is the value used to rank individual compounds tested in this assay based on their potency as HCV antiviral agents. Simple IC50 determinations are inadequate to assess the utility of compounds used in combination.
# The Replicon Assay is used to measure the capacity of potential HCV antiviral compounds to inhibit the accumulation of a HCV subgenomic RNA replicon molecule in a Huh7 cell line (Lohmann et al. Replication of Subgenomic Hepatitis C Virus RNAs in a Hepatoma Cell Line. Science 285, 110-113 (1999)).
# [2] = XTT metabolic assay to determine replicon cell viability; details: human
# From the text: (§1) Inflamation Research. […] It is assumed that the level of GAPDH mRNA, which is a constitutively expressed housekeeping gene, is the same in all viable cells. […] Thus, it is postulated, as done by others using TaqMan® technology to determine the levels of particular mRNAs in human cells, that GAPDH mRNA levels are proportional to viable cell numbers (VCN) in any given sample, with the relationship of VCN=2^̂(40−CtGAPDH mRNA). The VCN is computed for each of the Replicon Assay sample wells, and then we divide the HCV Replicon RNA copy number for a specific well by the VCN for that well. Once computed, this ratio is used instead of the HCV copy number to compute inhibition (“Avg. Inh using ratio”; FIG. 14A). […] In the Replicon Assay, it is assumed that the measured inhibition of HCV RNA replicon accumulation is the sum of the actual inhibition of HCV RNA replicon accumulation and the apparent inhibition of HCV RNA replicon accumulation due to cytoxicity. […] Thus, the true anti-HCV activity of a compound in the Replicon Assay corrected for general cytotoxicity can be estimated by dividing the number of HCV replicon RNA molecules measured in each sample by the VCN, thus normalizing to the number of viable cells in each sample. […] In FIG. 14A, “Avg.
# [3] = tested on: replicon cells (glyceraldehyde-3-phosphate dehydrogenase (GAPDH) mRNA levels); experiment: TaqMan quantitative RT-PCR of GAPDH mRNA levels in treated versus untreated replicon cells (cytotoxicity measure); details: treated versus untreated cells in the Replicon Assay
# From the text: as §1
# [4] = Hepatitis C virus, Huh-7, 48 h, read-out: IC50 HSPI, antiviral compound used individually, HCV replicon RNA accumulation, 48 h, response-surface fit (Ribavirin corrected for cytotoxicity)
# [5] = read-out: IC50 HSPI, antiviral compound used individually, HCV replicon RNA accumulation, 48 h, response-surface fit (Ribavirin corrected for cytotoxicity)
compound,measurement,setting,value
CCC[C@H](NC(=O)[C@@H]1[C@H]2CCC[C@H]2CN1C(=O)[C@@H](NC(=O)[C@@H](NC(=O)c1cnccn1)C1CCCCC1)C(C)(C)C)C(=O)C(=O)NC1CC1 [Compound CU],Inhibition of replicon RNA accumulation,[1]; Compound CU 0.0123 μM alone (interferon-alpha 2B 0 U),5%
same,Inhibition of replicon RNA accumulation,[1]; Compound CU 0.0370 μM alone (interferon-alpha 2B 0 U),8%
same,Inhibition of replicon RNA accumulation,[1]; Compound CU 0.1111 μM alone (interferon-alpha 2B 0 U),11%
same,Inhibition of replicon RNA accumulation,[1]; Compound CU 0.333 μM alone (interferon-alpha 2B 0 U),28%
same,Inhibition of replicon RNA accumulation,[1]; Compound CU 1 μM alone (interferon-alpha 2B 0 U),88%
same,Inhibition of replicon RNA accumulation,[1]; Compound CU 3 μM alone (interferon-alpha 2B 0 U),98%
same,pIC50,"[1]; Hepatitis C virus, Huh-7, 48 h, Compound CU as single drug treatment, initial experiment, replicon RNA accumulation 48 h",6.32
same,pIC50,[1]; [4],6.33
same,pIC50,[1]; [5],6.35 and 6.23 and 6.20 and 6.22 and 6.33
same,CC50,[2]; HCV replicon cells (Huh7),64.7 µM
CCC[C@H](NC(=O)C1[C@H]2CCC[C@H]2CN1C(=O)[C@@H](NC(=O)[C@@H](NC(=O)[C@@H](C)NC(=O)OC)C1CCCCC1)C(C)(C)C)C(=O)C(=O)NC1CC1 (stereo partly shown) [Compound EC],pIC50,[1]; [4],6.42
same,pIC50,[1]; [5],6.51
same,CC50,[2]; HCV replicon cells (Huh7),> 50 µM
CCC[C@@H](NC(=O)[C@@H]1[C@H]2CCCC2CN1C(=O)[C@@H](NC(=O)[C@H](NC(=O)c1cnccn1)C1CCCCC1)[C@H](C)CC)C(=O)C(=O)NC1CC1 (stereo partly shown) [Compound EP],pIC50,[1]; [4],6.37
same,CC50,[2],> 10 µM
"NC(=O)c1ncn([C@@H]2O[C@H](CO)[C@@H](O)[C@H]2O)n1 [Ribavirin, reference compound]",pIC50,[1]; [4],3.84
same,pIC50,"[1]; Hepatitis C virus, Huh-7, read-out: uncorrected IC50 (Avg. Inh original), not corrected for cytotoxicity",~4.10
same,reduction of accumulation of HCV replicon RNA (in words),[1]; compound alone,marginally effective
same,"cytotoxicity (GAPDH mRNA levels, TaqMan RT-PCR)",[3],significant Ribavirin-induced cytotoxicity

# Reference: patent US20140294763A1, “PEPTIDOMIMETIC PROTEASE INHIBITORS” (priority 2000, published 2014)
